The molecules below were run against Sphingosine 1-phosphate receptor 1 (Homo sapiens, UniProt P21453) (assay: S1P1 agonism potentiation – cell-based, potentiator mode, 60K MLSMR set, dose response (AID 466)). Conditions: not given.
Sphingosine 1-phosphate receptor 1, sequence (P21453 whole entry): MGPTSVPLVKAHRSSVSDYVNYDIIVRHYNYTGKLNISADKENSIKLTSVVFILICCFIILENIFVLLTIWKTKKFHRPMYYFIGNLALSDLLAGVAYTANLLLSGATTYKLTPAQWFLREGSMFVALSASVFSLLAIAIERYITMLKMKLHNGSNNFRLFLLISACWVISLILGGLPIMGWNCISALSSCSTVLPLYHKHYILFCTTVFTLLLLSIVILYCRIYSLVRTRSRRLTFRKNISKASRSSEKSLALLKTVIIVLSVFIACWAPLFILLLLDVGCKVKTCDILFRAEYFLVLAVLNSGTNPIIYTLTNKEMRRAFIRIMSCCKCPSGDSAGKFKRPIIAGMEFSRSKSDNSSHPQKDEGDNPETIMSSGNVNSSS

Compared with `O=C(Nc1nc2c(s1)CCCC2)c1cc2n(n1)C(C(F)(F)F)CC(C1CC1)N2` (stereo not given) [5-Cyclopropyl-7-trifluoromethyl-4,5,6,7-tetrahydro-pyrazolo[1,5-a]pyrimidine-2-carboxylic acid (4,5,6,7-tetrahydro-benzothiazol-2-yl)-amide], `CC(C)c1cc(C(F)(F)F)n2nc(C(=O)Nc3ccc4c(c3)OCO4)cc2n1` [5-Isopropyl-7-trifluoromethyl-pyrazolo[1,5-a]pyrimidine-2-carboxylic acid benzo[1,3]dioxol-5-ylamide] is 3.1-fold higher in EC50: 0.908 µM for the first, 2.84 µM for the second.

Going from `Cc1cc(N2CCN(C/C=C/c3ccccc3)CC2)n2ncnc2n1` [5-Methyl-7-[4-((E)-3-phenyl-allyl)-piperazin-1-yl]-[1,2,4]triazolo[1,5-a]pyrimidine] to `CCc1cc2c(N3CCN(c4ccccc4)CC3)ncnc2s1` [6-ethyl-4-(4-phenyl-1-piperazinyl)thieno[2,3-d]pyrimidine], the EC50 falls from > 30 µM to 8.06 µM.

`CCC(NCCOc1ccc(Cl)cc1)=C1C(=O)N(C)C(=O)N(C)C1=O` [5-[1-[2-(4-chlorophenoxy)ethylamino]propylidene]-1,3-dimethyl-1,3-diazinane-2,4,6-trione] and `Cn1nc(C(C)(C)C)cc1C(=O)NCc1ccc(N2CCCC2=O)cc1` [5-tert-Butyl-2-methyl-2H-pyrazole-3-carboxylic acid 4-(2-oxo-pyrrolidin-1-yl)-benzylamide] are within 1.5-fold of each other in EC50: 5.34 µM for the first, 4.46 µM for the second.

First: Cc1ccc(OCc2nc(-c3ccccc3)no2)c(C)c1 [5-[(2,4-dimethylphenoxy)methyl]-3-phenyl-1,2,4-oxadiazole]
Second: Clc1ccc(OCc2nc(-c3ccncc3)no2)c(Br)c1 [5-[(2-bromanyl-4-chloranyl-phenoxy)methyl]-3-pyridin-4-yl-1,2,4-oxadiazole]
The EC50 of the first is 1.8-fold lower: 1.96 µM for the first, 3.45 µM for the second. The first is the more potent here.

First: COC(=O)c1cc(NCc2ccccc2F)ccc1N1CCOCC1 [5-[(2-fluorobenzyl)amino]-2-morpholino-benzoic acid methyl ester]
Second: Nc1ccc(N2CCOCC2)c(Cl)c1 [(3-chloro-4-morpholino-phenyl)amine]
The EC50 of the first is 5.6-fold higher: 5.46 µM for the first, 0.981 µM for the second.

Compared with `COC(=O)c1cc(CSc2nnc(-c3ccccc3)c(-c3ccccc3)n2)oc1C` [5-[[(5,6-diphenyl-1,2,4-triazin-3-yl)thio]methyl]-2-methyl-3-furancarboxylic acid methyl ester], `OC(c1cccc(OCc2ccccc2)c1)c1nnc(-c2ccccc2)o1` (stereo not given) [(3-benzoxyphenyl)-(5-phenyl-1,3,4-oxadiazol-2-yl)methanol] is 2.5-fold higher in EC50: 1.05 µM for the first, 2.65 µM for the second.

Going from `O=C(Nc1ccc(N2CCCC2)c(Cl)c1)c1ccc(Br)o1` [5-bromanyl-N-(3-chloranyl-4-pyrrolidin-1-yl-phenyl)furan-2-carboxamide] to `O=C(Oc1cccc(C(=O)N2CCOCC2)c1)c1ccc(Br)cc1` [(3-morpholin-4-ylcarbonylphenyl) 4-bromanylbenzoate], the EC50 rises from 3.76 µM to > 95 µM.

Compared with `O=S(=O)(NCc1ccncc1)c1ccc(Br)s1` [5-bromanyl-N-(pyridin-4-ylmethyl)thiophene-2-sulfonamide], `CCc1ccc(S(=O)(=O)NCCc2csc(-c3ccccc3)n2)s1` [5-ethyl-N-[2-(2-phenyl-1,3-thiazol-4-yl)ethyl]thiophene-2-sulfonamide] is 3.7-fold higher in EC50: 2.21 µM for the first, 8.24 µM for the second. The first is the more potent here.

Going from `COC(=O)c1c(C)n(-c2ccc(OC)cc2)c2ccc(O)cc12` [5-hydroxy-1-(4-methoxyphenyl)-2-methyl-3-indolecarboxylic acid methyl ester] to `COc1ccc(-c2cn3c(C)c(C(=O)Nc4ccncc4)sc3n2)cc1` [6-(4-methoxyphenyl)-3-methyl-N-(4-pyridyl)imidazo[2,1-b]thiazole-2-carboxamide], the EC50 rises from 6.86 µM to > 10 µM. The first is the more potent here.

Compared with `O=S1(=O)Nc2c(ccc3cccnc23)-c2ccccc21` [5H-quinolino[8,7-c][1,2]benzothiazine 6,6-dioxide], `Clc1ccccc1C1=Nn2c(nnc2-c2ccncc2)SC1` [6-(2-chlorophenyl)-3-(4-pyridyl)-7H-[1,2,4]triazolo[3,4-b][1,3,4]thiadiazine] is 1.8-fold higher in EC50: 3.22 µM for the first, 5.66 µM for the second.

`COc1ccc(N2CCn3c2nc2c3c(=O)n(CCCc3ccccc3)c(=O)n2C)c(OC)c1` [6-(2,4-dimethoxyphenyl)-4-methyl-2-(3-phenylpropyl)-7,8-dihydropurin[7,8-a]imidazole-1,3-quinone] and `CCCCn1ccnc1C(=O)c1cccc(S(=O)(=O)N2c3ccccc3CC2C)c1` (stereo not given) [(1-butyl-2-imidazolyl)-[3-[(2-methyl-2,3-dihydroindol-1-yl)sulfonyl]phenyl]methanone] are within 1.5-fold of each other in EC50: 8.71 µM for the first, 9.16 µM for the second.

Going from `CCOC(=O)C1C(=O)C=C(c2ccc(OC)cc2)CC1c1ccco1` (stereo not given) [6-(2-furanyl)-4-(4-methoxyphenyl)-2-oxo-1-cyclohex-3-enecarboxylic acid ethyl ester] to `CCOC(=O)c1cccc2c1-c1ccccc1C2N=O` (stereo not given) [9-hydroximinofluorene-4-carboxylic acid ethyl ester], the EC50 rises from 3.37 µM to 10.2 µM (3-fold).

First: Cc1[nH]nc2c1C1(C(=O)N(Cc3ccc(Cl)cc3)c3ccccc31)C(C#N)C(=N)O2 (stereo not given) [6-amino-1'-[(4-chlorophenyl)methyl]-3-methyl-2'-oxo-5-spiro[2H-pyrano[2,3-c]pyrazole-4,3'-indole]carbonitrile]
Second: OCC12C=CC(O1)c1c2c(O)n(-c2ccccc2-c2ccccc2)c1O (stereo not given) [7-(hydroxymethyl)-2-(2-phenylphenyl)-4,7a-dihydro-3aH-octahydro-1H-4,7-epoxyisoindole-1,3-dione]
The EC50 of the first is 6.4-fold higher: 43.6 µM for the first, 6.82 µM for the second. The second is the more potent here.

`c1csc(CCNc2ncnc3sc4c(c23)CCC4)c1` [7,8-dihydro-6H-cyclopenta[4,5]thieno[1,2-c]pyrimidin-1-yl-[2-(2-thienyl)ethyl]amine] and `Cn1c(C(=O)N2CCCc3ccccc32)cc2sccc21` [(3,4-Dihydro-2H-quinolin-1-yl)-(4-methyl-4H-thieno[3,2-b]pyrrol-5-yl)-methanone] are within 1.5-fold of each other in EC50: 1.44 µM for the first, 1.47 µM for the second.

Going from `Cc1nnc(SC(=O)N2c3ccccc3Sc3ccccc32)s1` [10-phenothiazinecarbothioic acid S-(5-methyl-1,3,4-thiadiazol-2-yl) ester] to `Cc1nc(NC(C)c2ccccc2)c2oc3ccccc3c2n1` (stereo not given) [(2-methylbenzofuro[3,2-d]pyrimidin-4-yl)-(1-phenylethyl)amine], the EC50 rises from 3.63 µM to 9.78 µM (2.7-fold). The first is the more potent here.

`C=CCN1/C(=N/c2cccnc2)SCC1(O)c1ccc(C)cc1` (stereo not given) [(2E)-3-allyl-4-(4-methylphenyl)-2-(pyridin-3-ylimino)-1,3-thiazolidin-4-ol] was tested, and the EC50 was 7.92 µM.

Same assay, conditions: inactive by the depositor's call

`CCOC(=O)c1oc2ccc(S(=O)(=O)n3nc(-c4ccc(OC)cc4)cc3N)cc2c1C` [5-[5-amino-3-(4-methoxyphenyl)pyrazol-1-yl]sulfonyl-3-methyl-coumarilic acid ethyl ester] and `COC(=O)c1ccc(CSc2nc3ccccc3c(=O)n2Cc2ccco2)o1` [5-[[[3-(2-furanylmethyl)-4-oxo-2-quinazolinyl]thio]methyl]-2-furancarboxylic acid methyl ester] are within 1.5-fold of each other in EC50: 44.3 µM for the first, 40.4 µM for the second.

`Oc1c(C(c2ccco2)N2CCN(C(c3ccccc3)c3ccccc3)CC2)sc2ncnn12` (stereo not given) [5-[(4-benzhydrylpiperazin-1-yl)-(furan-2-yl)methyl]-[1,3]thiazolo[3,2-b][1,2,4]triazol-6-ol] and `Cc1cc(N2CCN(C(c3ccccc3)c3ccccc3)CC2)n2ncnc2n1` [7-(4-benzhydrylpiperazin-1-yl)-5-methyl-[1,2,4]triazolo[1,5-a]pyrimidine] are within 1.5-fold of each other in EC50: 20.1 µM for the first, 13.6 µM for the second.

`COc1ccccc1-n1nnnc1SCc1cc2c(cc1Br)OCO2` [5-[(6-bromanyl-1,3-benzodioxol-5-yl)methylsulfanyl]-1-(2-methoxyphenyl)-1,2,3,4-tetrazole] and `CCCc1cc2c(=O)c(-c3ccccn3)coc2cc1OC` [7-methoxy-6-propyl-3-(2-pyridinyl)-1-benzopyran-4-one] are within 1.5-fold of each other in EC50: 36.2 µM for the first, 37.1 µM for the second.

First: O=C(Nc1ccc(Oc2ccccc2)cc1)c1cnc2n(c1=O)CCS2 [5-keto-N-(4-phenoxyphenyl)-2,3-dihydrothiazolo[3,2-a]pyrimidine-6-carboxamide]
Second: Cc1ccc(C(=O)Nc2nc(COc3ccccc3)cs2)s1 [5-methyl-N-[4-(phenoxymethyl)-1,3-thiazol-2-yl]thiophene-2-carboxamide]
The EC50 of the first is 1.8-fold higher: 19.9 µM for the first, 11.2 µM for the second. The second is the more potent here.

`Cc1ccc(S(=O)(=O)Nc2cccc3ncccc23)s1` [5-methyl-N-quinolin-5-ylthiophene-2-sulfonamide] and `Cc1ccc(N2C(=O)c3cccc4c(N5CCN(C)CC5)ccc(c34)C2=O)c2cccnc12` [6-(4-methyl-1-piperazinyl)-2-(8-methyl-5-quinolinyl)-1H-benzo[de]isoquinoline-1,3(2H)-dione] are within 1.5-fold of each other in EC50: 27.6 µM for the first, 33.2 µM for the second.

`O=c1oc2cc(Br)ccc2n1CSC1=NCCS1` [6-Bromo-3-(4,5-dihydro-thiazol-2-ylsulfanylmethyl)-3H-benzooxazol-2-one] and `CCCn1c(CN2CCN(c3cccc(Cl)c3)CC2)nc2c1c(=O)n(C)c(=O)n2C` [8-[[4-(3-chlorophenyl)-1-piperazinyl]methyl]-1,3-dimethyl-7-propylpurine-2,6-dione] are within 1.5-fold of each other in EC50: 17.6 µM for the first, 18.8 µM for the second.

First: COc1cccc(-c2nnc3sc(C4CCCCC4)nn23)c1 [6-cyclohexyl-3-(3-methoxyphenyl)-[1,2,4]triazolo[3,4-b][1,3,4]thiadiazole]
Second: COc1ccc(CNc2cc(C)nc3ncnn23)c(OC)c1 [(2,4-Dimethoxy-benzyl)-(5-methyl-[1,2,4]triazolo[1,5-a]pyrimidin-7-yl)-amine]
The EC50 of the first is 1.9-fold higher: 30.6 µM for the first, 16 µM for the second. The second is the more potent here.

`COc1ccc2ncn(-c3ccccc3)c2c1` [6-methoxy-1-phenyl-1H-1,3-benzodiazole] and `CCOc1ccccc1COC(=O)c1cccc(-n2cnnn2)c1` [(2-ethoxyphenyl)methyl 3-(1,2,3,4-tetrazol-1-yl)benzoate] are within 1.5-fold of each other in EC50: 23.6 µM for the first, 25.8 µM for the second.

`CCNc1nc2c(c(=O)n(C)c(=O)n2C)n1Cc1ccc(Cl)cc1` [7-(4-chlorobenzyl)-8-(ethylamino)-1,3-dimethyl-xanthine] and `CC1CC(C)(C)Nc2ccc(OC(=O)c3ccco3)cc21` (stereo not given) [(2,2,4-trimethyl-3,4-dihydro-1H-quinolin-6-yl) furan-2-carboxylate] are within 1.5-fold of each other in EC50: 14.4 µM for the first, 14 µM for the second.

In the case of `CC1=CC(C)(C)Nc2ccc(OC(=O)c3cccnc3)cc21` [(2,2,4-trimethyl-1H-quinolin-6-yl) pyridine-3-carboxylate], the EC50 is reported as 11 µM.
